Reference: patent US20230150960A1, “COMPOSITIONS AND METHODS OF USING CYANINE DYES TO TARGET CANCER AND MITOCHONDRIA” (Thomas Jefferson University, priority 2020, published 2023)

Tests used:
Format in all cases: physicochemical
[1] = Solubility of BSA-containing formulations (post vortexing, 30 min and overnight at 18° C.); conditions: compound 2 mg/mL; for solubility at 30 min / solubility: BSA-containing formulation, 18 °C, aqueous with cosolvent or surfactant or cyclodextrin; for solubility at 30 min: after 30 minutes incubation at 18° C.
Description: Vortexing was conducted using a Denville Vortexer 59 (Denville Scientific Inc.), at maximum speed for 30 seconds. As used herein, the term overnight refers to a period lasting at least about 12-24 hours.

[2] = Solubility of glycerol-containing formulations (post vortexing, 30 min and overnight at 18° C.); conditions: compound 2 mg/mL; for solubility at 30 min / solubility / solubility at 30 s: glycerol-containing formulation; for solubility at 30 min / solubility: 18 °C; for solubility at 30 min: after 30 minutes incubation at 18° C.; for solubility at 30 s: post vortexing
Description: Tables 3A, 3B, and 3C describe solubility experiments conducted with the indicated compounds under the listed conditions. Vortexing was conducted using a Denville Vortexer 59 (Denville Scientific Inc.), at maximum speed for 30 seconds. As used herein, the term overnight refers to a period lasting at least about 12-24 hours.

[3] = Solubility of sodium deoxycholate-containing formulations (post vortexing, 30 min and overnight at 18° C.); conditions: compound 2 mg/mL; for solubility at 30 s: post vortexing
Description: Tables 5A, 5B, and 5C describe solubility experiments conducted with the indicated compounds under the listed conditions. Vortexing was conducted using a Denville Vortexer 59 (Denville Scientific Inc.), at maximum speed for 30 seconds. As used herein, the term overnight refers to a period lasting at least about 12-24 hours.

For `CCN1/C(=C/C=C/c2sc3ccccc3[n+]2CC)Sc2ccccc21` [JAC-B1, 3′,3′-Diethylthiacarbocyanine iodide], which solubility at 30 min ([1]; BSA 5 mg/mL, read-out: Solubility of BSA-containing formulations after 30 min incubation at 18° C., 5 mg/mL) is on record?
Its solubility at 30 min is < 2000 µg/mL.

What about the solubility at 30 min ([1]; BSA 10 mg/mL, read-out: Solubility of BSA-containing formulations after 30 min incubation at 18° C., 10 mg/mL) of the same compound?
The solubility at 30 min was < 2000 µg/mL.

What about the solubility at 30 min ([1]; BSA 15 mg/mL, read-out: Solubility of BSA-containing formulations after 30 min incubation at 18° C., 15 mg/mL) of the same compound?
Its solubility at 30 min is < 2000 µg/mL.

And the solubility at 30 min ([1]; BSA 25 mg/mL, read-out: Solubility of BSA-containing formulations after 30 min incubation at 18° C., 25 mg/mL)?
Its solubility at 30 min is > 2000 µg/mL.

What about the solubility at 30 min ([1]; BSA 80 mg/mL, read-out: Solubility of BSA-containing formulations after 30 min incubation at 18° C., 80 mg/mL) of the same compound?
The solubility at 30 min was > 2000 µg/mL.

And the solubility ([1]; BSA 80 mg/mL, overnight incubation at 18° C., read-out: Solubility of BSA-containing formulations after overnight incubation at 18° C., 80 mg/mL)?
Its solubility is > 2000 µg/mL.

And the solubility at 30 min ([1]; BSA 100 mg/mL, read-out: Solubility of BSA-containing formulations after 30 min incubation at 18° C., 100 mg/mL)?
The solubility at 30 min was > 2000 µg/mL.

What about the solubility ([1]; BSA 100 mg/mL, overnight incubation at 18° C., read-out: Solubility of BSA-containing formulations after overnight incubation at 18° C., 100 mg/mL) of the same compound?
Its solubility is > 2000 µg/mL.

What about the “Solubility of BSA-containing formulations after overnight incubation at 18° C., 5 mg/mL” value ([1]; BSA 5 mg/mL, overnight incubation at 18° C.) of the same compound?
Its value is “MFG”.

What about the “Solubility of BSA-containing formulations after overnight incubation at 18° C., 10 mg/mL” value ([1]; BSA 10 mg/mL, overnight incubation at 18° C.) of the same compound?
The value was “MFG”.

And the “Solubility of BSA-containing formulations after overnight incubation at 18° C., 15 mg/mL” value ([1]; BSA 15 mg/mL, overnight incubation at 18° C.)?
Its value is “MFG”.

And the “Solubility of BSA-containing formulations after overnight incubation at 18° C., 25 mg/mL” value ([1]; BSA 25 mg/mL, overnight incubation at 18° C.)?
Its value is “MFG”.

And the “Solubility of glycerol-containing formulations after overnight incubation at 18° C., 50%” value ([2]; 50% glycerol, overnight incubation at 18° C.)?
The value was “MFG”.

And the solubility at 30 min ([2]; aqueous with cosolvent or surfactant or cyclodextrin, 10% glycerol, read-out: Solubility of glycerol-containing formulations after 30 min incubation at 18° C., 10%)?
Its solubility at 30 min is < 2000 µg/mL.

And the solubility ([2]; aqueous with cosolvent or surfactant or cyclodextrin, 10% glycerol, overnight incubation at 18° C., read-out: Solubility of glycerol-containing formulations after overnight incubation at 18° C., 10%)?
Its solubility is < 2000 µg/mL.

What about the solubility at 30 min ([2]; aqueous with cosolvent or surfactant or cyclodextrin, 20% glycerol, read-out: Solubility of glycerol-containing formulations after 30 min incubation at 18° C., 20%) of the same compound?
Its solubility at 30 min is < 2000 µg/mL.

What about the solubility ([2]; aqueous with cosolvent or surfactant or cyclodextrin, 20% glycerol, overnight incubation at 18° C., read-out: Solubility of glycerol-containing formulations after overnight incubation at 18° C., 20%) of the same compound?
The solubility was < 2000 µg/mL.

What about the solubility at 30 min ([2]; aqueous with cosolvent or surfactant or cyclodextrin, 30% glycerol, read-out: Solubility of glycerol-containing formulations after 30 min incubation at 18° C., 30%) of the same compound?
Its solubility at 30 min is < 2000 µg/mL.

And the solubility ([2]; aqueous with cosolvent or surfactant or cyclodextrin, 30% glycerol, overnight incubation at 18° C., read-out: Solubility of glycerol-containing formulations after overnight incubation at 18° C., 30%)?
The solubility was < 2000 µg/mL.

What about the solubility at 30 min ([2]; aqueous with cosolvent or surfactant or cyclodextrin, 40% glycerol, read-out: Solubility of glycerol-containing formulations after 30 min incubation at 18° C., 40%) of the same compound?
The solubility at 30 min was < 2000 µg/mL.

And the solubility ([2]; aqueous with cosolvent or surfactant or cyclodextrin, 40% glycerol, overnight incubation at 18° C., read-out: Solubility of glycerol-containing formulations after overnight incubation at 18° C., 40%)?
Its solubility is < 2000 µg/mL.

What about the solubility at 30 min ([2]; aqueous with cosolvent or surfactant or cyclodextrin, 50% glycerol, read-out: Solubility of glycerol-containing formulations after 30 min incubation at 18° C., 50%) of the same compound?
Its solubility at 30 min is > 2000 µg/mL.

What about the solubility at 30 min ([2]; 0% glycerol, read-out: Solubility of glycerol-containing formulations after 30 min incubation at 18° C., 0%) of the same compound?
The solubility at 30 min was < 2000 µg/mL.

And the solubility ([2]; 0% glycerol, overnight incubation at 18° C., read-out: Solubility of glycerol-containing formulations after overnight incubation at 18° C., 0%)?
The solubility was < 2000 µg/mL.

And the solubility at 30 s ([2]; aqueous with cosolvent or surfactant or cyclodextrin, 10% glycerol, read-out: Solubility of glycerol-containing formulations post vortexing, 10%)?
The solubility at 30 s was < 2000 µg/mL.

What about the solubility at 30 s ([2]; aqueous with cosolvent or surfactant or cyclodextrin, 20% glycerol, read-out: Solubility of glycerol-containing formulations post vortexing, 20%) of the same compound?
Its solubility at 30 s is < 2000 µg/mL.

What about the solubility at 30 s ([2]; aqueous with cosolvent or surfactant or cyclodextrin, 30% glycerol, read-out: Solubility of glycerol-containing formulations post vortexing, 30%) of the same compound?
The solubility at 30 s was < 2000 µg/mL.

What about the solubility at 30 s ([2]; aqueous with cosolvent or surfactant or cyclodextrin, 40% glycerol, read-out: Solubility of glycerol-containing formulations post vortexing, 40%) of the same compound?
The solubility at 30 s was < 2000 µg/mL.

What about the solubility at 30 s ([2]; aqueous with cosolvent or surfactant or cyclodextrin, 50% glycerol, read-out: Solubility of glycerol-containing formulations post vortexing, 50%) of the same compound?
The solubility at 30 s was > 2000 µg/mL.

And the solubility at 30 s ([2]; 0% glycerol, read-out: Solubility of glycerol-containing formulations post vortexing, 0%)?
The solubility at 30 s was < 2000 µg/mL.

What about the “Solubility of sodium deoxycholate-containing formulations after 30 min incubation at 18° C., 50 mg/mL” value ([3]; sodium deoxycholate 50 mg/mL, after 30 minutes incubation at 18° C.) of the same compound?
Its value is “MFG”.

And the “Solubility of sodium deoxycholate-containing formulations after 30 min incubation at 18° C., 100 mg/mL” value ([3]; sodium deoxycholate 100 mg/mL, after 30 minutes incubation at 18° C.)?
Its value is “MFG”.

What about the solubility at 30 s ([3]; sodium deoxycholate-containing formulation, aqueous with cosolvent or surfactant or cyclodextrin, sodium deoxycholate 12.5 mg/mL, read-out: Solubility of sodium deoxycholate-containing formulations post vortexing, 12.5 mg/mL) of the same compound?
Its solubility at 30 s is < 2000 µg/mL.

What about the solubility at 30 s ([3]; sodium deoxycholate-containing formulation, aqueous with cosolvent or surfactant or cyclodextrin, sodium deoxycholate 25 mg/mL, read-out: Solubility of sodium deoxycholate-containing formulations post vortexing, 25 mg/mL) of the same compound?
The solubility at 30 s was < 2000 µg/mL.

What about the solubility at 30 s ([3]; sodium deoxycholate-containing formulation, aqueous with cosolvent or surfactant or cyclodextrin, sodium deoxycholate 50 mg/mL, read-out: Solubility of sodium deoxycholate-containing formulations post vortexing, 50 mg/mL) of the same compound?
Its solubility at 30 s is < 2000 µg/mL.

And the solubility at 30 s ([3]; sodium deoxycholate-containing formulation, aqueous with cosolvent or surfactant or cyclodextrin, sodium deoxycholate 100 mg/mL, read-out: Solubility of sodium deoxycholate-containing formulations post vortexing, 100 mg/mL)?
The solubility at 30 s was < 2000 µg/mL.

And the solubility at 30 min ([3]; sodium deoxycholate-containing formulation, aqueous with cosolvent or surfactant or cyclodextrin, sodium deoxycholate 12.5 mg/mL, after 30 minutes incubation at 18° C.)?
Its solubility at 30 min is < 2000 µg/mL.

What about the solubility ([3]; sodium deoxycholate-containing formulation, aqueous with cosolvent or surfactant or cyclodextrin, sodium deoxycholate 12.5 mg/mL, overnight incubation at 18° C., read-out: Solubility of sodium deoxycholate-containing formulations after overnight incubation at 18° C., 12.5 mg/mL) of the same compound?
Its solubility is < 2000 µg/mL.
